Laboratory results: paper PMC3521869 (Journal of medicinal chemistry, 2012)
Bridge positions count the residues as written; N and C are the ends. Square brackets hold non-standard residues; d marks the D form. 2Nal = N[C@@H](Cc1ccc2ccccc2c1)C(=O)O; Cit = NC(=O)NCCC[C@H](N)C(=O)O

Experiment: Fraction bound to serum proteins
Type: in vitro ADME
Conditions: human

## cyclo([2Nal]CY[Cit]KVCPKILQRCRRDSDCPGACICRGNGYCGSYR[Cit]CRG[dP]RR) (disulfide 2-38, 7-24, 14-26, 20-32) [MCo-CVX-5c]
  fraction unbound: < 0.01
